Assay results from patent publication US7923243B2, “Stress-responsive induction of a therapeutic agent and methods of use” (University of Southern California, priority 1999, dated 2011).

Tested on: B/C10ME fibrosarcoma
Test: Tumor formation and GCV treatment, B/C10ME fibrosarcoma in BALB/c mice
Assay type: in vivo
Settings: 2×10^7 cells s.c.; GCV 100 mg/kg daily from day 21, tumor diameter about 2 cm
Experimental: Tumor Formation. Confluent cultures of B/C10ME clones were harvested with trypsin-EDTA (Gibco/BRL) and washed three times in PBS. Approximately 2×10^7 viable cells were resuspended in […] of PBS. Six- to eight-week-old BALB/c mice obtained from Jackson Laboratory were subcutaneously injected with an 18-gauge needle in their right flank. Tumors were palpable within 12 days of inoculation and bi-perpendicular measurements were taken of the progressively growing tumor daily. Tumor growth was monitored by measurement of the larger and smaller diameters. At the indicated times post-injection, mice were injected with GCV daily at a dosage of 100 mg/kg of body weight for about 10 days. Tumors were judged to have regressed after losing both measurability and palpability. For each retroviral construct, multiple injections of 2 to 3 independently derived transduced clonal cell lines were performed.
Complete Eradication of Tumors in G1NaGrpTk Transduced Cells. To directly compare the therapeutic efficacy of the G1NaGrpTk vector with G1TkSvNa, B/C10ME clones transduced with the respective retroviral constructs were injected subcutaneously at a dose of 2×10^7 cells per BALB/c mouse. As controls, the parental, non-transduced cells were also injected. Tumors were palpable after 12 days of injection. At day 21, when the average tumor diameter reached about 2 cm, GCV was administered. […]

Which “tumor growth following GCV treatment” value does the source give for `Nc1nc(O)c2ncn(COC(CO)CO)c2n1` [GCV, ganciclovir] here?
Its value is “tumors continued to grow at various rates”.
